Measured values as given in ChEMBL document CHEMBL1157977, “Musidunin and musiduol, insect antifeedants from Croton jatrophoides” (2006).

Columns and labels:
Format in all cases: functional
Spodoptera frugiperda [1] = assay: Antifeedant activity against Spodoptera frugiperda second-instar larvae assessed as drug level causing 50% protection of host plant by leaf disc assay relative to control
Pectinophora gossypiella [2] = assay: Antifeedant activity against Pectinophora gossypiella second-instar larvae assessed as drug level causing 95% protection of host plant by leaf disc assay relative to control
Pectinophora gossypiella [3] = assay: Antifeedant activity against Pectinophora gossypiella second-instar larvae assessed as drug level causing 50% protection of host plant by leaf disc assay relative to control
Spodoptera frugiperda [4] = assay: Antifeedant activity against Spodoptera frugiperda second-instar larvae assessed as drug level causing 95% protection of host plant by leaf disc assay relative to control

## CC(=O)O[C@H]1[C@H](OC(C)=O)[C@]2(C)[C@@H](C(=O)C[C@H]2c2ccoc2)[C@]2(C)[C@H](O)C[C@H]3C(C)(C)O[C@]4(O)C(=O)CC[C@]34[C@@H]12
Spodoptera frugiperda [1]
  Activity: 2 µg/mL
Pectinophora gossypiella [2]
  Activity: 20 µg/mL
Pectinophora gossypiella [3]
  Activity: 4 µg/mL
Spodoptera frugiperda [4]
  Activity: 36 µg/mL

## COC(=O)C[C@H]1C(C)(C)O[C@@]23OCC4=C5[C@H](O)C[C@@H](c6ccoc6)[C@]5(C)[C@@H](OC(C)=O)[C@H](OC(C)=O)[C@@H]4[C@@]12CCC3=O
Pectinophora gossypiella [2]
  Activity: 10 µg/mL
Pectinophora gossypiella [3]
  Activity: 3 µg/mL
